Source: the NIST ThermoML archive (doi:10.1016/j.jct.2009.06.019)

Assays:
[1] = 101.33 kPa, Liquid, Vibrating tube method
[2] = xn = mol fraction of the nth substance listed; conditions: 101.3 kPa, Liquid, Vibrating tube method

CN1CCN(C)C1=O [1,3-dimethyl-2-imidazolidinone]
[1]
Conditions | mass density [kg/m3]
278.15 K | 1069.3
288.15 K | 1060.43
298.15 K | 1051.6
308.15 K | 1042.79
313.15 K | 1038.38
318.15 K | 1034

CN1CCN(C)C1=O [1,3-dimethyl-2-imidazolidinone] + O
mass density [kg/m3], [2]
Conditions | 278.15 K | 288.15 K | 298.15 K | 308.15 K | 313.15 K | 318.15 K
x1 = 0.000904 | 1000.51 | 999.59 | 997.49 | 994.45 | 992.61 | 990.61
x1 = 0.001349 | 1000.75 | 999.82 | 997.72 | 994.65 | 992.81 | 990.8
x1 = 0.001765 | 1000.99 | 1000.04 | 997.92 | 994.84 | 992.99 | 990.96
x1 = 0.002486 | 1001.42 | 1000.44 | 998.29 | 995.19 | 993.33 | 991.29
x1 = 0.003566 | 1002.08 | 1001.05 | 998.84 | 995.7 | 993.82 | 991.77
x1 = 0.004326 | 1002.53 | 1001.45 | 999.22 | 996.05 | 994.15 | 992.09
x1 = 0.005478 | 1003.25 | 1002.09 | 999.81 | 996.59 | 994.68 | 992.59
x1 = 0.006268 | 1003.72 | 1002.53 | 1000.22 | 996.97 | 995.04 | 992.94
x1 = 0.006996 | 1004.16 | 1002.93 | 1000.57 | 997.3 | 995.36 | 993.25
x1 = 0.008039 | 1004.82 | 1003.54 | 1001.14 | 997.82 | 995.85 | 993.72
x1 = 0.008854 | 1005.33 | 1004.01 | 1001.57 | 998.22 | 996.23 | 994.08

CN1CCN(C)C1=O [1,3-dimethyl-2-imidazolidinone] + [2H]O[2H]
mass density [kg/m3], [2]
Conditions | 278.15 K | 288.15 K | 298.15 K | 308.15 K | 313.15 K | 318.15 K
x1 = 0.001014 | 1105.53 | 1105.7 | 1104.24 | 1101.46 | 1099.65 | 1097.62
x1 = 0.001853 | 1105.6 | 1105.72 | 1104.2 | 1101.34 | 1099.52 | 1097.48
x1 = 0.002463 | 1105.67 | 1105.72 | 1104.15 | 1101.29 | 1099.44 | 1097.38
x1 = 0.003372 | 1105.77 | 1105.73 | 1104.13 | 1101.19 | 1099.33 | 1097.23
x1 = 0.004298 | 1105.89 | 1105.78 | 1104.08 | 1101.13 | 1099.22 | 1097.09
x1 = 0.004982 | 1105.97 | 1105.83 | 1104.06 | 1101.05 | 1099.13 | 1097.01
x1 = 0.006229 | 1106.16 | 1105.89 | 1104.06 | 1100.95 | 1099 | 1096.83
x1 = 0.007163 | 1106.33 | 1105.96 | 1104.06 | 1100.89 | 1098.91 | 1096.72
x1 = 0.008054 | 1106.48 | 1106.05 | 1104.07 | 1100.87 | 1098.85 | 1096.62
x1 = 0.009084 | 1106.65 | 1106.13 | 1104.08 | 1100.81 | 1098.77 | 1096.51
x1 = 0.01051 | 1106.96 | 1106.33 | 1104.16 | 1100.77 | 1098.67 | 1096.37

[2H]O[2H] [water-d2] + CN1CCN(C)C1=O
[2], x2 = 0
Conditions | mass density [kg/m3]
278.15 K | 1105.46
288.15 K | 1105.7
298.15 K | 1104.31
308.15 K | 1101.59
313.15 K | 1099.83
318.15 K | 1097.81
